Results from US8551537B2, “Rhus verniciflua stokes extract having increased content of active flavonoid compound and method for preparing same” (AZI Company Ltd., priority 2010, dated 2013).

Assay: Anti-oxidative activity, electron-donating ability by DPPH method
Format: biochemical
Protocol: A measurement of anti-oxidative activity was performed by using a method of measuring an electron-donating ability with DPPH method. DPPH is an abbreviation for 1,1-diphenyl-2-picrylhydrazyl, and is widely used a marker for measuring anti-oxidative activity due to its radical. The testing processes were as follows: (1) 2 ml of 0.1 mM DPPH (Sigma, D-9132) dissolved in ethanol was treated to 2 ml of sample dissolved in ethanol; (2) it was mixed for 10 minutes, and then maintained at a dark place for 30 minutes; (3) an absorbance was measured at 520 nm; and (4) the degree of anti-oxidative ability (electron-donating ability, EDA) was calculated. Vitamin E (Fluka, 95420) was used as a positive control group and Formula was as follow.
In the above formula, Cabs denotes an absorbance of a negative control group (in the case of treating only ethanol instead of sample) and Sabs denotes an absorbance of sample.

[1] = Table 1, comparison experiment between fustin and fisetin
[2] = Table 4, DPPH method, absorbance at 520 nm

SMILES	Anti-oxidative Activity (IC50, ug/ml) [1] [µg/mL]	Anti-oxidative Activity (IC50, ug/ml) [2] [µg/mL]	antioxidative activity of fisetin as compared with that of fustin (ratio versus fustin)
O=C1c2ccc(O)cc2O[C@H](c2ccc(O)c(O)c2)[C@H]1O [Fustin, 2,3-Dihydrofisetin]	33	32	
O=c1c(O)c(-c2ccc(O)c(O)c2)oc2cc(O)ccc12 [Fisetin, 2-(3,4-dihydroxyphenyl)-3,7-dihydroxy-4H-chromen-4-one-hydrate]	8	7.8	at least 5 times
